From patent US8815503B2, “Compositions and methods for immunostimulatory RNA oligonucleotides” (Rheinische Friedrich-Wilhelms-Universitat Bonn, priority 2005, dated 2014)

Experiments:
PBMC [1] = test: IL-12p70 production in PBMC stimulated with complexed RNA oligonucleotides or TLR ligands, ELISA of supernatant after 24 hours; type: cell-based, human; settings: for IL-12p70 production within PBMC: TLR ligands at optimal concentrations, RNA complexed with poly-L-arginine
Method: FIG. 5: PBMC from three different healthy donors were isolated and stimulated with the following stimuli (form left to right): medium, Poly I:C (10 μg/ml), LPS (1 μg/ml), 3M-001 (1 μM), 3M-007 (1 μM), R848 (5 μg/ml), 3M-002 (1 μM), CpG ODN2216 (3 μg/ml), (the following stimuli were all complexed using poly-L-arginine 88) medium, polyA ssRNA, poly U ssRNA, polyA/U dsRNA, polyc ssRNA, polyG ssRNA, poly C/G dsRNA, 9.1 sense ssRNA, 9.1antisene ssRNA, 9.1duplex dsRNA, 9.2sense ssRNA, 9.2 antisene ssRNA, 9.2duplex dsRNA, 9.3sense ssRNA, 9.3antisene ssRNA and 9.3duplex dsRNA. 24 hours after stimulation supernatants were harvested and analyzed for IL-12p70 (A) and TNF-a (B) production. Data from three individual donors were summarized and depicted as mean values ±SEM. […]

PBMC [2] = test: 193 ssRNA 4mer-motif library screen: IL-12 (IL-12p40) production in PBMC of six donors, poly-L-Arg complexation, ELISA at 44 hours, IL-12 index and adjusted IL-12 index; type: cell-based, human; parameters: key to Adjusted IL-12 index Mean: IL-12 index (ratio to 9.2sense) minus donor mean, averaged over 6 donors; settings: for IL-12 in supernatant, mean of the two raw values of the duplicates: poly-L-Arg complexed, 44 hours; for Adjusted IL-12 index Mean: 193 ssRNA oligonucleotide library, data from six individual donors summarized, ascending order
In short: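 Human PBMC from six healthy donors were stimulated in duplicate with poly-L-arginine-complexed ssRNA oligonucleotides, and IL-12p40 in supernatant was measured by ELISA at 44 h. Each value was divided by the 9.2sense control on the same plate (IL-12 index), then the donor's mean index was subtracted; adjusted indices are means ± SEM over donors.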

Molecule	Adjusted IL-12 index Mean (PBMC [2])	also measured
polyU	–	IL-12p70 production within PBMC (PBMC [1]): slight yet consistent IL-12 response
polyA	–	IL-12p70 production within PBMC (PBMC [1]): no activity; IL-12p70 production within PBMC (PBMC [1]; listed as poly adenosine RNA oligonucleotides): completely inactive; IL-12p70 production within PBMC (PBMC [1]; listed as poly adenosine oligonucleotides): inactive
polyC	–	IL-12p70 production within PBMC (PBMC [1]): no activity
5′-AGCUUAACCUGUCCUUCAA-3′ (RNA, backbone not given here) [9.2sense, standard ssRNA oligonucleotide, positive control on all cell culture plates]	–	IL-12 in supernatant, mean of the two raw values of the duplicates (PBMC [2]; donor 3): 908 pg/mL; IL-12p70 production, absolute value (PBMC [1]; donor 1, complexed with poly-L-arginine of approx. 88 amino acids): 1390 pg/mL; IL-12p70 production, absolute value (PBMC [1]; donor 2, complexed with poly-L-arginine of approx. 88 amino acids): 396 pg/mL
CCOCc1nc2c(N)nc3ccccc3c2n1CC(C)(C)O [R848]	–	IL-12p70 production within PBMC (PBMC [1]): able to induce IL-12p70 production
AAAAAAAAGGUAAAAAAAA (RNA, backbone not given here) [ANP-Oligo 034]	2.21	–
AAAAAAAAUGCAAAAAAAA (RNA, backbone not given here) [ANP-Oligo 044]	0.2	–
AAAAAAAGUACAAAAAAAA (RNA, backbone not given here) [ANP-Oligo 134]	0.42	–
AAAAAAAUGCUAAAAAAAA (chemistry not given here) [ANP-Oligo 175]	1.85	adjusted IL-12 index (PBMC [2]; donor 3, IL-12 index minus mean of all IL-12 indices of the donor): 1.46; IL-12 in supernatant, mean of the two raw values of the duplicates (PBMC [2]; donor 3): 1725 pg/mL; IL-12 index (PBMC [2]; donor 3, ratio to RNA9.2sense): 1.90
AAAAAAACUCUAAAAAAAA (RNA, backbone not given here) [ANP-Oligo 091]	−0.33	–
AAAAAAAUGAGAAAAAAAA (RNA, backbone not given here) [ANP-Oligo 171]	0.22	–
AAAAAAAUCCCAAAAAAAA (RNA, backbone not given here) [ANP-Oligo 161]	−0.42	–
AAAAAAAACUUAAAAAAAA (RNA, backbone not given here) [ANP-Oligo 025]	−0.31	–
AAAAAAACUUGAAAAAAAA (RNA, backbone not given here) [ANP-Oligo 096]	−0.14	–
AAAAAAAUCUGAAAAAAAA (RNA, backbone not given here) [ANP-Oligo 168]	0.45	–
AAAAAAAGAGGAAAAAAAA (RNA, backbone not given here) [ANP-Oligo 105]	−0.62	–
CCCc1nc2c(N)nc3ccccc3c2s1 [3M-002]	–	IL-12p70 production within PBMC (PBMC [1]): able to induce IL-12p70 production
AAAAAAAACAUAAAAAAAA (RNA, backbone not given here) [ANP-Oligo 016]	−0.37	–
AAAAAAAUAACAAAAAAAA (RNA, backbone not given here) [ANP-Oligo 146]	−0.16	–
AAAAAAAAUCGAAAAAAAA (RNA, backbone not given here) [ANP-Oligo 042]	−0.64	–
AAAAAAAAGUUAAAAAAAA (RNA, backbone not given here) [ANP-Oligo 037]	0.21	–
AAAAAAACGUGAAAAAAAA (RNA, backbone not given here) [ANP-Oligo 084]	−0.2	–
AAAAAAACCGGAAAAAAAA (RNA, backbone not given here) [ANP-Oligo 069]	−0.64	–
AAAAAAAAGUAAAAAAAAA (RNA, backbone not given here) [ANP-Oligo 010]	−0.16	–
